Assay results: US20120121679A1, “VIRICIDAL AND MICROBICIDAL COMPOSITIONS AND USES THEREOF” (University of Georgia Research Foundation, Inc., priority 2009, published 2012)
Like-named read-outs stand apart in the source and are kept apart here.

Legend:
[1] = tested on: S. enteritidis; experiment: Reduction of S. enteritidis in water treated with organic acids and SDS; type: cell-based, Salmonella enteritidis; conditions: for Salmonella reduction in water: within 30 minutes; for S. enteritidis counts: water, 21° C.
[2] = tested on: Feline Calicivirus (FCV); experiment: Inactivation of FCV by levulinic acid plus SDS in solution, plaque assay; conditions: 21° C., 1 min
[3] = tested on: Murine norovirus (MNV-1); experiment: Inactivation of MNV-1 by levulinic acid plus SDS in solution, plaque assay; conditions: 21° C., 1 min
[4] = tested on: spores of Bacillus anthracis Sterne (34F2); type: cell-based
[5] = tested on: yeast species; experiment: Effect of levulinic acids plus SDS at 21° C. on various yeast species; conditions: inoculum […] 10^7 CFU/ml
[6] = tested on: L. monocytogenes; type: cell-based, Listeria monocytogenes; conditions: 21° C.

CC(=O)CCC(=O)O [1.0% levulinic acid, levulinic acid]
Salmonella reduction in water ([1]; listed as 1% by weight levulinic acid): ≤ 1 log CFU/ml | Log Reduction PFU/ml (standard deviation), FCV ([2]; listed as 1% Levulinic acid): 0.32 (±0.19) log PFU/ml | Log Reduction PFU/ml (standard deviation), MNV-1 ([3]; listed as 1% Levulinic acid): −0.04 (±0.23) log PFU/ml

CCCCCCCCCCCCOS(=O)(=O)[O-].[Na+] [2% SDS, sodium dodecyl sulfate]
Log Reduction PFU/ml (standard deviation), FCV ([2]; sulfate): −0.05 (±0.22) log PFU/ml | Log Reduction PFU/ml (standard deviation), MNV-1 ([3]; sulfate): −0.23 (±0.59) log PFU/ml | Recovery levels over time ([4]; Experiment A3): did not decrease | CFU/ml % recovery (as compared to control flask F) ([4]; Experiment A3, 0 min): 119% | CFU/ml % recovery (as compared to control flask F) ([4]; Experiment A3, 10 min): 65% | CFU/ml % recovery (as compared to control flask F) ([4]; Experiment A3, 45 min): 94% | CFU/ml % recovery (as compared to control flask F) ([4]; Experiment A3, 90 min): 144% | CFU/ml % recovery (as compared to control flask F) ([4]; Experiment A3, 180 min): 95% | CFU/ml % recovery (as compared to control flask F) ([4]; Experiment A4 absent heat, RT, 0 min): 85% | CFU/ml % recovery (as compared to control flask F) ([4]; Experiment A4 absent heat, RT, 1 h): 90% | CFU/ml % recovery (as compared to control flask F) ([4]; Experiment A4 absent heat, RT, 2 h): 87% | CFU/ml % recovery (as compared to control flask F) ([4]; Experiment A4 absent heat, RT, 3 h): 98% | CFU/ml % recovery (as compared to control flask F) ([4]; Experiment A4 absent heat, RT, 4 h): 79% | CFU/ml % recovery (as compared to control flask F) ([4]; Experiment A4 with heat, 65° C., 0 min): 48% | CFU/ml % recovery (as compared to control flask F) ([4]; Experiment A4 with heat, 65° C., 1 h): 53% | CFU/ml % recovery (as compared to control flask F) ([4]; Experiment A4 with heat, 65° C., 2 h): 74% | CFU/ml % recovery (as compared to control flask F) ([4]; Experiment A4 with heat, 65° C., 3 h): 68% | CFU/ml % recovery (as compared to control flask F) ([4]; Experiment A4 with heat, 65° C., 4 h): 114% | CFU/ml % recovery (as compared to control flask F) ([4]; Experiment A5 absent heat, RT, 0 min): 122% | CFU/ml % recovery (as compared to control flask F) ([4]; Experiment A5 absent heat, RT, 1 h): 117% | CFU/ml % recovery (as compared to control flask F) ([4]; Experiment A5 absent heat, RT, 2 h): 103% | CFU/ml % recovery (as compared to control flask F) ([4]; Experiment A5 absent heat, RT, 3 h): 113% | CFU/ml % recovery (as compared to control flask F) ([4]; Experiment A5 absent heat, RT, 4 h): 103% | CFU/ml % recovery (as compared to control flask F) ([4]; Experiment A5 with heat, 65° C., 0 min): 71% | CFU/ml % recovery (as compared to control flask F) ([4]; Experiment A5 with heat, 65° C., 1 h): 69% | CFU/ml % recovery (as compared to control flask F) ([4]; Experiment A5 with heat, 65° C., 2 h): 53% | CFU/ml % recovery (as compared to control flask F) ([4]; Experiment A5 with heat, 65° C., 3 h): 71% | CFU/ml % recovery (as compared to control flask F) ([4]; Experiment A5 with heat, 65° C., 4 h): 54% | effectiveness compared with water control F ([4]; Experiments A4, A5): not more effective than the water control F

CC(=O)CCC(=O)O [2.0% levulinic acid, levulinic acid]
Yeast counts at 2 min ([5]; Debaryomyces hansenii): 4.9 log CFU/ml | Yeast counts at 5 min ([5]; Debaryomyces hansenii): 4.6 log CFU/ml | Yeast counts at 20 min ([5]; Debaryomyces hansenii): 4.7 log CFU/ml | Yeast counts at 30 min ([5]; Debaryomyces hansenii): 3.0 log CFU/ml | Yeast counts at 60 min ([5]; Debaryomyces hansenii): 1.3 log CFU/ml | Yeast counts at 2 min ([5]; Geotrichum candidum): 4.4 log CFU/ml | Yeast counts at 5 min ([5]; Geotrichum candidum): 4.3 log CFU/ml | Yeast counts at 20 min ([5]; Geotrichum candidum): 3.8 log CFU/ml | Yeast counts at 30 min ([5]; Geotrichum candidum): 3.4 log CFU/ml | Yeast counts at 60 min ([5]; Geotrichum candidum): 2.0 log CFU/ml | Yeast counts at 2 min ([5]; Saccharomyces cerevisiae): 5.5 log CFU/ml | Yeast counts at 5 min ([5]; Saccharomyces cerevisiae): 5.4 log CFU/ml | Yeast counts at 20 min ([5]; Saccharomyces cerevisiae): 5.3 log CFU/ml | Yeast counts at 30 min ([5]; Saccharomyces cerevisiae): 5.5 log CFU/ml | Yeast counts at 60 min ([5]; Saccharomyces cerevisiae): 5.0 log CFU/ml | Yeast counts at 2 min ([5]; Zygosaccharomyces bailii): 5.5 log CFU/ml | Yeast counts at 5 min ([5]; Zygosaccharomyces bailii): 5.4 log CFU/ml | Yeast counts at 20 min ([5]; Zygosaccharomyces bailii): 5.4 log CFU/ml | Yeast counts at 30 min ([5]; Zygosaccharomyces bailii): 5.4 log CFU/ml | Yeast counts at 60 min ([5]; Zygosaccharomyces bailii): 5.3 log CFU/ml | Log Reduction PFU/ml (standard deviation), FCV ([2]; listed as 2% Levulinic acid): 0.51 (±0.34) log PFU/ml | Log Reduction PFU/ml (standard deviation), MNV-1 ([3]; listed as 2% Levulinic acid): −0.06 (±0.17) log PFU/ml

CCCCCCCCCCCCOS(=O)(=O)[O-].[Na+] [1% SDS, sodium dodecyl sulfate]
Log Reduction PFU/ml (standard deviation), FCV ([2]; sulfate): −0.05 (±0.18) log PFU/ml | Log Reduction PFU/ml (standard deviation), MNV-1 ([3]; sulfate): 0.03 (±0.12) log PFU/ml

CCCCCCCCCCCCOS(=O)(=O)[O-].[Na+] [0.05% SDS, sodium dodecyl sulfate]
L. monocytogenes counts ([6]; 0 min): 6.6 ± 0.3 log CFU/ml | L. monocytogenes counts ([6]; 2 min): 6.4 ± 0.1 log CFU/ml | L. monocytogenes counts ([6]; 5 min): 6.0 ± 0.1 log CFU/ml | L. monocytogenes counts ([6]; 10 min): 5.0 ± 0.3 log CFU/ml | L. monocytogenes counts ([6]; 20 min): 3.8 ± 0.2 log CFU/ml | L. monocytogenes counts ([6]; 30 min): 3.3 ± 0.1 log CFU/ml | S. enteritidis counts ([1]; 0 min): 7.1 log CFU/ml | S. enteritidis counts ([1]; 2 min): 7.0 log CFU/ml | S. enteritidis counts ([1]; 5 min): 7.2 log CFU/ml | S. enteritidis counts ([1]; 10 min): 7.1 log CFU/ml | S. enteritidis counts ([1]; 20 min): 7.2 log CFU/ml | S. enteritidis counts ([1]; 30 min): 7.1 log CFU/ml | Salmonella reduction in water [1]: did not reduce Salmonella cell numbers | Log Reduction PFU/ml (standard deviation), FCV ([2]; sulfate): −0.12 (±0.23) log PFU/ml | Log Reduction PFU/ml (standard deviation), MNV-1 ([3]; sulfate): −0.13 (±0.26) log PFU/ml
